The test system of one data set is OVCAR-8 tumors. Kind of data set: OVCAR-8 Tumor Xenograft Efficacy Study (IP). Type of data set: in vivo, mouse. Here is the method: (§1) Animals were dosed IP daily with vehicle alone, C9 (50 or 100 mg/kg), or C12 (25 or 50 mg/kg). […] Tumor volume and body weight assessment performed as described above. After the final dose on day 46, plasma pharmacokinetic analysis was performed as described above except blood was drawn by retro-orbital bleed method.

Another data set has as its system BT-549 TNBC cells. Kind of data set: Western blot and cGAS/γH2A.X immunostaining (Example 8). Type of data set: cell-based, human. The note with it: 0.2 μM, 48 hours. Here is the method:
In order to analyze the effects on mitosis, BT-549 TNBC cells were seeded into 6-well plates at a density of 100,000 per well in 3 replicate wells in 4 mL of complete growth media. The next day, cells were treated with DMSO, KIF18A inhibitor #1 (Compound C11, 0.5 μM), or KIF18A inhibitor #2 (Compound C9, 0.01 μM) in 4 mL of complete media at a final DMSO concentration of 0.5%. After 48 hours, cell lysates were prepared for each treatment group (combined media and cells from 3 wells) using Minute™ Total Protein Extraction kit (SD-001, Invent Biotechnologies) lysis conditions according to manufactures protocol, supplemented with protease inhibitor cocktail (cOmplete™, Roche) and phospatase inhibitors (PhosphoStop, Roche). Primary antibodies included rabbit anti-p-Histone H3 (serine-10) (06-570, Millipore, 1: 2000), mouse anti-γH2A.X (serine-139) (05-636, Millipore, 1: 2000), mouse anti-cleaved-PARP (cl-PARP) (#51-900017, BD Pharmingen, 1:500), mouse anti-BubR1 (612503, BD Pharmingen, 1:5000), mouse anti-total HEC1 (ab3613, ABCAM, 1: 1000), rabbit anti-pHEC1(serine-55) (GTX70017, Genetex, 1: 500), and rabbit anti-GAPDH (2118, Cell Signaling, 1:10,000).
Also, cGAS and γH2A.X (serine-139) immunostaining in BT-549 TNBC cells was carried out. […] Wide-field images were captured using 40×objective on upright Nikon Eclipse NI-E epi-fluorescence microscope running Elements software.
On the technique in general: Immunoblotting shows a protein as a band on a membrane.

For a further data set, the system named is CAL-51 tumors. Kind of data set: CAL-51 Tumor Xenograft Efficacy Study (IP). Type of data set: in vivo, mouse. The note with it: 100 mg/kg IP once daily for 18 consecutive days. The method, then: (§2) Tumor volume and body weight assessment performed as described above. After the final dose on day 36, plasma pharmacokinetic analysis was performed as described above. All data analysis was performed as described above.

Data set [1] can be described thus: Terminal plasma pharmacokinetic analysis in tumor-bearing mice. Format: in vivo, mouse. Here is the method:
(§3) Data was graphed using GraphPad Prism 7.05.
as §2, §1

Data set [2] is described as follows: Tolerability (body weight, blood counts) in tumor-bearing nude mice. Format: in vivo, mouse. Particulars: 18 days. The method, then:
Female athymic nude mice were injected with 5×10^6 cells in 0.1 mL subcutaneously in the right flank. After tumors were established (average tumor volume of 150 mm^3), animals were randomized into 4 treatment groups (vehicle alone, KIF18A inhibitor at 10, 30, or 100 mg/kg) with 10 animals per group and treated orally once per day (PO, QD) starting on day 25 post-tumor implantation. Tumor measurement was calculated from the length, width and height of tumors measured with a PRO-MAX electronic digital caliper (Japan Micrometer Mfg. Co. LTD). The tumor volume was calculated as [L×W×H] and expressed in mm^3. Tumor volume and animal body weight measurements were determined twice per week (study start day 25, study end day 45). A single mouse was removed from the study (KIF18A inhibitor 30 mg/kg group) due to abdominal distention, a finding likely unrelated to compound.
Data was plotted using GraphPad Prism software (V7.0.4), tumor volume and body weight data are expressed as means plus or minus standard error of the mean and plotted as a function of time. Statistical significance of observed differences between growth curves were calculated using SLACR package (v.1.0.3). Statistical significance for tumor regressions were performed by paired Student's t-Test on the initial and final tumor volumes with significant tumor regression p-values (***p≤0.0001) for all three KIF18A inhibitor treatment groups. KIF18A inhibitor dose 10 mg/kg (81% regression, 5 of 10 tumor-free), 30 mg/kg (98% regression, 8 of 9 tumor-free), and 100 mg/kg (97% regression, 7 of 10 tumor-free).
Female athymic nude mice were injected with 5×10^6 OVCAR-8 cells in 0.1 mL subcutaneously in the right flank. […] Tumor volume and animal body weight measurements were determined twice per week (study start day 25, study end day 47). Tumor measurements, formulas, and regression analysis as described above for FIGS. 5A-5B. Data was plotted using GraphPad Prism software (V7.0.4), tumor volume and body weight data are expressed as means plus or minus standard error of the mean and plotted as a function of time. Statistical significance of observed differences between growth curves were calculated using SLACR package (v.1.0.3).
as §3, §2, §1

In data set [3] the test system is five KIF18A inhibitor-sensitive cancer cell lines. In words: 6-day cell growth assay with re-plating in drug-free media. Type of data set: cell-based, human. The method, then:
To better understand the durability of response after KIF18A inhibitor treatment, all five KIF18A inhibitor-sensitive cancer cell lines were treated with DMSO or Compound C11 in a 6-day cell growth assay, where the surviving cells were washed, collected, counted, and re-plated in drug-free growth media and cultured for additional 7 to 9 days. MCF-7 cells treated with a CDK 4/6 inhibitor was included as a cytostatic comparator.

The mark [4] stands for this setting: OVCAR-3 study, C9 100 mg/kg, C12 25 mg/kg IP daily.

SMILES strings stand for the structures.

One may read the AUC as concentration integrated over time. The low end stands for low exposure, the high end for high exposure. Take `CC(C)(C)NS(=O)(=O)c1cccc(NC(=O)c2ccc(S(=O)(=O)NC(C)(C)C)cc2N2CCC3(CC2)CC3)c1` [Compound C9, 4-(N-(tert-butyl)sulfamoyl)-N-(3-(N-(tert-butyl)sulfamoyl)phenyl)-2-(6-azaspiro[2.5]octan-6-yl)benzamide]: the tumor regression came to 16% with OVCAR-8 tumors (50 mg/kg IP once daily for 18 consecutive days) and 73% in the data set on OVCAR-8 tumors (100 mg/kg IP once daily for 18 consecutive days). The “cGAS and γH2A.X staining of cytoplasmic micronuclei” value with BT-549 TNBC cells was “increase in DNA damage and cGAS positive micronuclei”. In addition, the “effect on tumor growth relative to vehicle control” value in the data set on CAL-51 tumors is on record as “no observable effect”. Besides, the “PK profiles across studies” value in data set [1] (OVCAR-3, CAL-51, OVCAR-8 studies) is reported as “comparable across studies”. Moreover, the AUC in data set [1] (nude, mouse, plasma, OVCAR-3 study, 100 mg/kg IP, after the final dose) was determined as 130 µM·h. For the same compound, the “tolerability (body weight)” value in data set [2] (CAL-51 study, C9 100 mg/kg, C12 25 mg/kg IP daily) was “well-tolerated”; in data set [2] (OVCAR-8 study, C9 50 or 100 mg/kg, C12 25 or 50 mg/kg IP daily), “well-tolerated”. Also, in data set [2] (setting [4]), the “body weight loss or changes in blood counts” value is given as “no evidence of body weight loss or changes in blood counts”. In addition, the tolerability result in data set [2] (setting [4]) is “well-tolerated”.
With `CC(C)(CO)Nc1ccc(C(=O)Nc2cccc(S(=O)(=O)C3CCCC3)c2)c(N2CCC3(CC2)CC3)n1` [Compound C11, N-(3-(cyclopentylsulfonyl)phenyl)-6-((1-hydroxy-2-methylpropan-2-yl)amino)-2-(6-azaspiro[2.5]octan-6-yl)nicotinamide], the “cell growth and colony formation” value in data set [3] (6-day treatment) was “significant decrease in cell growth and colony formation”. In addition, the “cell growth potential after drug withdrawal relative to DMSO control” value in data set [3] (re-plated in drug-free media, additional 7 to 9 days) is reported as “marked reduction cell growth potential”.

Source of the values: patent publication US20230151432A1, “KIF18A INHIBITORS FOR TREATMENT OF NEOPLASTIC DISEASES” (AMGEN INC., priority 2020, published 2023).
